For two molecules, TGI results are on record in PubChem BioAssay (NCI).

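Compound exposure: 48 hours, 5 concentrations, 96-well plates. TGI is the concentration that stops growth completely.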 Bounds are passed on as bounds.

Test systems include SR leukemia; SNB-78 CNS; NCI-H23 lung; CAKI-1 renal; M19-MEL melanoma; SW-620 colon; UO-31 renal; RXF 393 renal; ACHN renal; A549 NSCLC; DLD-1 colon; MOLT-4 leukemia; SK-OV-3 ovarian; M14 melanoma; XF 498 CNS; HOP-18 NSCLC; HOP-92 NSCLC; U251 CNS; LXFL 529 NSCLC; CCRF-CEM leukemia.
Common to all, as to assay: NCI tumour cell line growth inhibition, 48 h

`Cn1c(=O)c(C#N)c(O)c2cc3ccccc3nc21`: the TGI in the assay with SR leukemia, in the assay with SNB-78 CNS, with NCI-H23 lung, in the assay with CAKI-1 renal, in the assay on M19-MEL melanoma and in the assay with SW-620 colon was over 100 µM each time. Besides, the TGI in the assay with UO-31 renal, with RXF 393 renal, with ACHN renal, in the assay on A549 NSCLC, in the assay on DLD-1 colon and with MOLT-4 leukemia was over 100 µM each time. In addition, the TGI in the assay on SK-OV-3 ovarian, with M14 melanoma, in the assay with XF 498 CNS, in the assay on HOP-18 NSCLC, with HOP-92 NSCLC and with U251 CNS was over 100 µM each time. For the same molecule, the TGI in the assay on LXFL 529 NSCLC and with CCRF-CEM leukemia was over 100 µM throughout.
For `Cc1c(N(Cc2ccccc2)Cc2ccccc2)nc(S(C)(=O)=O)nc1S(C)(=O)=O`, the TGI is 4.18 µM with SR leukemia; 4.81 µM with SNB-78 CNS; 3.35 µM in the assay with NCI-H23 lung; 20.2 µM in the assay with CAKI-1 renal; 2.89 µM with M19-MEL melanoma; 3.61 µM in the assay with SW-620 colon. For the same molecule, the TGI in the assay with UO-31 renal came out at 24.7 µM; in the assay with RXF 393 renal, 3.1 µM; with ACHN renal, 16.4 µM; in the assay with A549 NSCLC it was 29 µM; in the assay with DLD-1 colon it was 3.59 µM; in the assay on MOLT-4 leukemia, 4.76 µM. The TGI was 27.7 µM in the assay with SK-OV-3 ovarian; 4.3 µM in the assay with M14 melanoma; 3.16 µM in the assay with XF 498 CNS; 17.3 µM in the assay on HOP-18 NSCLC; 8.4 µM in the assay on HOP-92 NSCLC; 6.64 µM with U251 CNS. Moreover, the TGI in the assay with LXFL 529 NSCLC is 3.45 µM; in the assay on CCRF-CEM leukemia it was 5.15 µM.
